Consider 1 compound from patent US6716582B2 (priority 2000, dated 2004).

Common to all, as to format: cell-based, E. coli
One experiment deals with luxCDABE gene fusions. Nature of the experiment: retest of nalidixic acid upregulated fusions in liquid medium. Particulars: of 7 conc tested. As to the method: Several concentrations of nalidixic acid were used because the differences in responses between liquid and solid growth were not known. Light production of 100 μl duplicate cultures at 37° C. was quantitated using a 96 well plate luminometer (Luminoskan Ascent, Labsystems). […] It should be noted that the liquid medium tests were not corrected for growth inhibition by nalidixic acid.

In another experiment the test system is yebF-luxCDABE fusion. As to the kind of experiment: inverted yebF-luxCDABE fusion induction by DNA damaging agents. Particulars: inverted yebF-lux transformants; nalidixic acid. From the text: In this case, a divergent promoter to the purT gene was present in the chromosomal fragment and strains containing the backward yebF fusion produced light. Following isolation of plasmid DNA, XmaI digestion that releases the insert DNA from the vector, religation and transformation, 10% of the transformants produced light. […] The orientation of the inserted segment to yield a fusion of yebF to the luxCDABE operon was confirmed by DNA sequence analysis.
To test inverting of a chromosomal segment in a plasmid containing divergent promoters, the backward fusion to yebF was chosen. […] In this case, a divergent promoter to the purT gene was present in the chromosomal fragment and strains containing the backward yebF fusion produced light. Following XmaI digestion, religation and transformation, 10% of the transformants produced light. […] This was verified by DNA sequence analysis. Thus, inverting chromosomal segments containing divergent promoters is possible and is facilitated if the two promoters can be distinguished by their biological activity.

Experiment [1] relates to SOS regulon luxCDABE gene fusions. Nature of the experiment: SOS regulon lux fusions: stress response in liquid LB. Particulars: each of the eight SOS fusion strains; at least three concentrations. As to the method: To test the stress responses, one or two single colonies of each selected strain were used to inoculate 5.0 ml of LB medium containing 150 μg/ml of ampicillin. These cultures were grown overnight at 37° C. then diluted by adding 50 μl or 100 μl of the overnight culture into 10.0 ml of fresh LB medium (without ampicillin) and grown with agitation at 37° C. until the culture was in exponential phase with readings on a Klett-Summerson colorimeter containing the red filter of between 10 and 40. These actively growing cultures were immediately used to initiate a stress response experiment by adding 50 μl of cultures to 50 μl of LB medium containing various concentrations of chemical in the wells a 96 well luminometer plate. This division of the actively growing culture at the time of chemical addition ensured identical populations were present when the stress was imposed. Light production was measured in a Dynex ML3000 luminometer at 37° C. The dimensionless units of light production, relative light units (RLU), are obtained by comparison with the light reading from an internal light-emitting diode.
The ability of these promoter-luxCDABE fusions to report activation of the SOS stress response was tested using nalidixic acid, a known, potent chemical inducer. The final concentrations of nalidixic acid were 1, 5, 25, and 125 μg/ml for all but strain DPD2293, which was tested at 80, 40, 20, 10, 5, 2.5, and 1.25 μg/ml.
Specificity of responses was tested by measuring the effect of ethanol on these SOS regulon gene fusions.

In experiment [2] the test system is Luxarray 0.5 luxCDABE reporter clones. As to the kind of experiment: Luxarray 0.5 solid phase perturbation with nalidixic acid. As to conditions: for bioluminescence response: solid phase, 1 or 5 μg/ml, 2 hrs. As to the method: A solid phase assay system consisting of reporter clones growing in the presence or absence of a perturbation, biological, environmental or chemical was developed. This was accomplished by growing the reporters on a porous membrane (Biodyne B, Nunc) seated on top of solid growth media in a culture dish (OmniTray, Nunc). Luminescence was measured either by a luminometer or by creating an image of the entire culture and quantitating the pixel density. Effects of perturbants can be determined by comparison of luminescence generated by treated and control cultures. Growth on the surface of the membrane allows the reporter assay to be moved between conditions as required. Experimental protocols often involve perturbations that prohibit long term exposure due to cell death or other irreversible effects. The ability to move the entire array to new growth conditions allows one a great variety of experimental schemes such as pulsed or pulse/chase exposures, reversibility, and short term kinetic studies.
Membranes were sterilized with UV illumination for 10 min then placed in contact with prewarmed media in a culture dish. The clones and controls were printed onto an approximately 8×12 cm membrane mimicking the pattern of a 96-well plate (FIG. 3A). Strains were printed to generate 8 repeating sections of the 10 strains and two controls and placed in a Dynex ML3000 luminometer prewarmed to 37° C. Luminescence data was collected for each spot for 40 cycles of 20 min duration (overnight). […] Without exception, the signal strength measured corroborated the data obtained in liquid culture. Additionally, replicates varied minimally, again similar to liquid culture measurements.
Next the system was evaluated for its ability to determine responses to perturbation, in this case, DNA damage caused by nalidixic acid. Parental clone and two nonresponding reporters, osmY, and lacZYA, and three DNA damage responsive reporters, uvrA, recA, dinG, were chosen. […] The membranes were moved to new, pre-warmed plates containing varying amounts of nalidixic acid and light readings collected with an ML3000 luminometer. […] Luminescence was measured with a Dynex ML3000 luminometer every 30 min for 2 hrs. […] The strain containing the parental plasmid, pDEW201, without a promoter driving luxCDABE expression produces very low levels of bioluminescence that are very close to the background measured on a ML3000 luminometer for strains grown in 96-well microplates. […]
The clones of Luxarray 0.5 were used to print arrays as described above at a 4×4 density. […] Spot intensity was determined using ArrayVision™ (Imaging Research, Toronto, Canada).

With `CCn1cc(C(=O)O)c(=O)c2ccc(C)nc21` [Nalidixic acid, nalidixic acid], the “# of conc with > 1.5 fold up” value is 6 in the experiment with luxCDABE gene fusions (dinG ybiB lux-a.pk0024.f5); 7 with luxCDABE gene fusions (dinP lux-a.pk055.a3); 0 in the experiment on luxCDABE gene fusions (frvR frvX frvB frvA lux-a.pk046.e6); 3 with luxCDABE gene fusions (lpxA lpxB rnhB dnaE lux-a.pk061.c3); 6 in the experiment with luxCDABE gene fusions (lux-a.pk0015.d6); 6 in the experiment on luxCDABE gene fusions (lux-a.pk0019.g1). Moreover, the “# of conc with > 1.5 fold up” value is recorded as 7 in the experiment on luxCDABE gene fusions (lux-a.pk033.c5); 7 in the experiment with luxCDABE gene fusions (oraA lux-a.pk058.f5); 3 in the experiment on luxCDABE gene fusions (yaaF lux-a.pk031.e7); 0 in the experiment with luxCDABE gene fusions (yfhJ fdx hscA yfhE lux-a.pk0019.g2); 5 with luxCDABE gene fusions (yigN lux-a.pk046.f11). Also, in the experiment on yebF-luxCDABE fusion, the induction of bioluminescence entry is given as “highly induced”. Also, the “bioluminescence vs untreated control” value in experiment [1] was “increased bioluminescence”. For the same compound, the bioluminescence response result is on record as “increased bioluminescence” in experiment [2] (SOS regulon reporters uvrA, recA, dinG); “unaffected” in experiment [2] (osmY and lacZYA fusions). In addition, the reporter expression result in experiment [2] (five DNA damage-responsive reporters, high density array, 5 μg/ml, 0-8 hr) was “upregulation of expression”. The light production entry in experiment [2] (lac promoter fusion and several other promoter fusions, high density array, 5 μg/ml) was “decreased”.
